# Test results published in patent publication US20050267156A1, “Broadspectrum 2-amino-benzothiazole sulfonamide hiv protease inhibitors” (Tibotec Pharmaceuticals Ltd., priority 2002, published 2005).
# Where a name gives a salt, the structure may show the parent alone. Read-outs that look alike come from different tables or passages of the source.
# Legend:
# Type in all cases: cell-based
# mutant HIV strain F = assay: microbe, parasite or virus in culture; details: for fold resistance Strain F: FR=EC50 (mutant strain)/EC50 (HIV-1 strain LAI); for EC50: Human immunodeficiency virus 1, MT4, read-out: pEC50 Strain F, mutant HIV strain F, MT4 cells (converted)
# Description: (§1) HIV- or mock-infected MT4 cells were incubated for five days in the presence of various concentrations of the inhibitor. […] Cell viability is measured by measuring the concentration of MTT, a yellow, water soluble tetrazolium dye that is converted to a purple, water insoluble formazan in the mitochondria of living cells only. Upon solubilization of the resulting formazan crystals with isopropanol, the absorbance of the solution is monitored at 540 nm. The values correlate directly to the number of living cells remaining in the culture at the completion of the five-day incubation. The inhibitory activity of the compound was monitored on the virus-infected cells and was expressed as EC50 and EC90. These values represent the amount of the compound required to protect 50% and 90%, respectively, of the cells from the cytopathogenic effect of the virus. […] The selectivity index (SI) (ratio CC50/EC50) is an indication of the selectivity of the anti-HIV activity of the inhibitor. Wherever results are reported as e.g. pEC50 or pCC50 values, the result is expressed as the negative logarithm of the result expressed as EC50 or CC50 respectively.
# mutant HIV strain A = assay: microbe, parasite or virus in culture; details: for EC50: Human immunodeficiency virus 1, MT4, read-out: pEC50 Strain A, mutant HIV strain A, MT4 cells (converted); for fold resistance Strain A: FR=EC50 (mutant strain)/EC50 (HIV-1 strain LAI)
# Description: as §1
# mutant HIV strain B = assay: microbe, parasite or virus in culture; details: for EC50: Human immunodeficiency virus 1, MT4, read-out: pEC50 Strain B, mutant HIV strain B, MT4 cells (converted); for fold resistance Strain B: FR=EC50 (mutant strain)/EC50 (HIV-1 strain LAI)
# Description: as §1
# mutant HIV strain E = assay: microbe, parasite or virus in culture; details: for EC50: Human immunodeficiency virus 1, MT4, read-out: pEC50 Strain E, mutant HIV strain E, MT4 cells (converted); for fold resistance Strain E: FR=EC50 (mutant strain)/EC50 (HIV-1 strain LAI)
# Description: as §1
# mutant HIV strain D = assay: microbe, parasite or virus in culture; details: for EC50: Human immunodeficiency virus 1, MT4, read-out: pEC50 Strain D, mutant HIV strain D, MT4 cells (converted); for fold resistance Strain D: FR=EC50 (mutant strain)/EC50 (HIV-1 strain LAI)
# Description: as §1
# mutant HIV strain C = assay: microbe, parasite or virus in culture; details: for EC50: Human immunodeficiency virus 1, MT4, read-out: pEC50 Strain C, mutant HIV strain C, MT4 cells (converted); for fold resistance Strain C: FR=EC50 (mutant strain)/EC50 (HIV-1 strain LAI)
# Description: as §1
# HIV-1 strain LAI = assay: Cellular anti-HIV assay (MT4/MTT), wild type; details: MT4 cells, read-out: WT (pEC50) (converted)
# Description: as §1, with “The compounds of the present invention were examined for anti-viral activity in a cellular assay. […] The cellular assay was performed according to the following procedure. HIV-” for “HIV-”
# [1] = Toxicity on mock-infected cells (MTT); details: human
# Description: HIV- or mock-infected MT4 cells were incubated for five days in the presence of various concentrations of the inhibitor. At the end of the incubation period, the replicating virus in the control cultures has killed all HIV-infected cells in the absence of any inhibitor. Cell viability is measured by measuring the concentration of MTT, a yellow, water soluble tetrazolium dye that is converted to a purple, water insoluble formazan in the mitochondria of living cells only. Upon solubilization of the resulting formazan crystals with isopropanol, the absorbance of the solution is monitored at 540 nm. The values correlate directly to the number of living cells remaining in the culture at the completion of the five-day incubation. The inhibitory activity of the compound was monitored on the virus-infected cells and was expressed as EC50 and EC90. These values represent the amount of the compound required to protect 50% and 90%, respectively, of the cells from the cytopathogenic effect of the virus. […] The selectivity index (SI) (ratio CC50/EC50) is an indication of the selectivity of the anti-HIV activity of the inhibitor. Wherever results are reported as e.g. pEC50 or pCC50 values, the result is expressed as the negative logarithm of the result expressed as EC50 or CC50 respectively.
# [2] = Human immunodeficiency virus 1, MT4, wild type HIV-1 strain LAI
# [3] = Human immunodeficiency virus 1, wild type HIV-1 strain LAI
smiles,measurement,setting,value
"CNc1nc2ccc(S(=O)(=O)N(CC(C)C)C[C@@H](O)[C@H](Cc3ccccc3)NC(=O)OCc3cncs3)cc2s1.O=C(O)C(F)(F)F [Compound 19, {(1S,2R)-1-benzyl-2-hydroxy-3-[isobutyl-(2-methylamino-benzothiazole-6-sulfonyl)-amino]-propyl}-carbamic acid thiazol-5-ylmethyl ester trifluoroacetate]",pEC50 Strain F,"mutant HIV strain F; mutant HIV strain F, MT4 cells",6.80
same,pEC50 Strain A,"mutant HIV strain A; mutant HIV strain A, MT4 cells",7.36
same,pEC50 Strain B,"mutant HIV strain B; mutant HIV strain B, MT4 cells",7.80
same,pEC50 Strain E,"mutant HIV strain E; mutant HIV strain E, MT4 cells",7.90
same,pEC50 Strain D,"mutant HIV strain D; mutant HIV strain D, MT4 cells",7.43
same,pEC50 Strain C,"mutant HIV strain C; mutant HIV strain C, MT4 cells",7.88
same,EC50,HIV-1 strain LAI; [2],3.09 nM
"CNc1nc2ccc(S(=O)(=O)N(CC(C)C)C[C@@H](O)[C@H](Cc3ccccc3)NC(=O)c3cccc(O)c3C)cc2s1 [Compound 23, N-{(1S,2R)-1-benzyl-2-hydroxy-3-[isobutyl-(2-methylamino-benzothiazole-6-sulfonyl)-amino]-propyl}-3-hydroxy-2-methyl-benzamide trifluoroacetate]",EC50,mutant HIV strain A,288 nM
same,EC50,mutant HIV strain B,9.55 nM
same,EC50,mutant HIV strain E,7.24 nM
same,EC50,mutant HIV strain D,21.4 nM
same,EC50,mutant HIV strain C,8.71 nM
same,CC50 at 5 days,[1],69200 nM
same,EC50,HIV-1 strain LAI; [2],4.57 nM
"CNc1nc2ccc(S(=O)(=O)N(CC(C)C)C[C@@H](O)[C@H](Cc3ccccc3)NC(=O)COc3c(C)cc(N)cc3C)cc2s1 [Compound 26, 2-(4-amino-2,6-dimethyl-phenoxy)-N-{(1S,2R)-1-benzyl-2-hydroxy-3-[isobutyl-(2-methylamino-benzothiazole-6-sulfonyl)-amino]-propyl}-acetamide]",fold resistance Strain F,mutant HIV strain F,20.9
same,EC50,mutant HIV strain F,56.2 nM
same,fold resistance Strain A,mutant HIV strain A,11.2
same,EC50,mutant HIV strain A,30.2 nM
same,fold resistance Strain B,mutant HIV strain B,1.5
same,EC50,mutant HIV strain B,3.98 nM
same,fold resistance Strain E,mutant HIV strain E,2.3
same,EC50,mutant HIV strain E,6.17 nM
same,fold resistance Strain D,mutant HIV strain D,3.1
same,EC50,mutant HIV strain D,8.32 nM
same,fold resistance Strain C,mutant HIV strain C,2.7
same,EC50,mutant HIV strain C,7.24 nM
same,EC50,HIV-1 strain LAI; [3],2.69 nM
"Cc1c(O)cccc1C(=O)N[C@@H](Cc1ccccc1)[C@H](O)CN(CC(C)C)S(=O)(=O)c1ccc2nc(N)sc2c1 [Compound 11, N-{(1S,2R)-3-[(2-amino-benzothiazole-6-sulfonyl)-isobutyl-amino]-1-benzyl-2-hydroxypropyl}-3-hydroxy-2-methyl-benzamide]",fold resistance Strain F,mutant HIV strain F,7.1
same,EC50,mutant HIV strain F,102 nM
same,fold resistance Strain A,mutant HIV strain A,7.8
same,EC50,mutant HIV strain A,112 nM
same,fold resistance Strain B,mutant HIV strain B,0.5
same,EC50,mutant HIV strain B,7.24 nM
same,fold resistance Strain E,mutant HIV strain E,0.5
same,EC50,mutant HIV strain E,7.24 nM
same,fold resistance Strain D,mutant HIV strain D,0.6
same,EC50,mutant HIV strain D,8.32 nM
same,fold resistance Strain C,mutant HIV strain C,0.5
same,EC50,mutant HIV strain C,7.59 nM
same,CC50 at 5 days,[1],57500 nM
same,EC50,HIV-1 strain LAI; [3],14.5 nM
"Cc1c(F)cccc1C(=O)N[C@@H](Cc1ccccc1)[C@H](O)CN(CC(C)C)S(=O)(=O)c1ccc2nc(N)sc2c1 [Compound 16, N-{(1S,2R)-3-[(2-amino-benzothiazole-6-sulfonyl)-isobutyl-amino]-1-benzyl-2-hydroxypropyl}-3-fluoro-2-methyl-benzamide]",EC50,mutant HIV strain F,> 100000 nM
same,EC50,mutant HIV strain A,> 100000 nM
same,EC50,mutant HIV strain B,> 100000 nM
same,EC50,mutant HIV strain E,> 100000 nM
same,EC50,mutant HIV strain D,> 100000 nM
same,EC50,mutant HIV strain C,> 100000 nM
same,CC50 at 5 days,[1],11200 nM
same,EC50,HIV-1 strain LAI; [3],1410 nM
"CC(C)CN(C[C@@H](O)[C@H](Cc1ccccc1)NC(=O)OCc1ccccc1)S(=O)(=O)c1ccc2nc(N)sc2c1 [Compound 7, {(1S,2R)-3-[(2-amino-benzothiazole-6-sulfonyl)-isobutyl-amino]-1-benzyl-2-hydroxypropyl}-carbamic acid benzyl ester]",fold resistance Strain F,mutant HIV strain F,131.8
same,EC50,mutant HIV strain F,776 nM
same,fold resistance Strain A,mutant HIV strain A,72.4
same,EC50,mutant HIV strain A,427 nM
same,fold resistance Strain B,mutant HIV strain B,5.0
same,EC50,mutant HIV strain B,29.5 nM
same,fold resistance Strain E,mutant HIV strain E,7.4
same,EC50,mutant HIV strain E,43.7 nM
same,fold resistance Strain D,mutant HIV strain D,20.0
same,EC50,mutant HIV strain D,117 nM
same,fold resistance Strain C,mutant HIV strain C,5.5
same,EC50,mutant HIV strain C,32.4 nM
same,CC50 at 5 days,[1],46800 nM
same,EC50,HIV-1 strain LAI; [3],5.89 nM
"CC(C)CN(C[C@@H](O)[C@H](Cc1ccccc1)NC(=O)OC1COC2OCCC12)S(=O)(=O)c1ccc2nc(N(C)C)sc2c1 (stereo partly drawn) [Compound 6, {(1S,2R)-1-benzyl-3-[(2-dimethylamino-benzothiazole-6-sulfonyl)-isobutyl-amino]-2-hydroxy-propyl}-carbamic acid hexahydro-furo[2,3-b]furan-3-yl ester]",fold resistance Strain F,mutant HIV strain F,177.8
same,EC50,mutant HIV strain F,708 nM
same,fold resistance Strain A,mutant HIV strain A,50.1
same,EC50,mutant HIV strain A,200 nM
same,fold resistance Strain B,mutant HIV strain B,32.4
same,EC50,mutant HIV strain B,129 nM
same,fold resistance Strain D,mutant HIV strain D,27.5
same,EC50,mutant HIV strain D,110 nM
same,fold resistance Strain C,mutant HIV strain C,8.5
same,EC50,mutant HIV strain C,33.9 nM
same,CC50 at 5 days,[1],> 100000 nM
same,EC50,HIV-1 strain LAI; [3],3.98 nM
"Cc1ccccc1C(=O)N[C@@H](Cc1ccccc1)[C@H](O)CN(CC(C)C)S(=O)(=O)c1ccc2nc(N)sc2c1 [Compound 14, N-{(1S,2R)-3-[(2-amino-benzothiazole-6-sulfonyl)-isobutyl-amino]-1-benzyl-2-hydroxypropyl}-2-methyl-benzamide]",fold resistance Strain A,mutant HIV strain A,234.4
same,EC50,mutant HIV strain A,891 nM
same,fold resistance Strain B,mutant HIV strain B,7.1
same,EC50,mutant HIV strain B,26.9 nM
same,fold resistance Strain E,mutant HIV strain E,7.9
same,EC50,mutant HIV strain E,30.2 nM
same,fold resistance Strain D,mutant HIV strain D,10.5
same,EC50,mutant HIV strain D,39.8 nM
same,fold resistance Strain C,mutant HIV strain C,46.8
same,EC50,mutant HIV strain C,178 nM
same,CC50 at 5 days,[1],46800 nM
same,EC50,HIV-1 strain LAI; [3],3.8 nM
"CC(C)CN(C[C@@H](O)[C@H](Cc1ccccc1)NC(=O)OCc1cccnc1)S(=O)(=O)c1ccc2nc(N)sc2c1 [Compound 9, {(1S,2R)-3-[(2-amino-benzothiazole-6-sulfonyl)-isobutyl-amino]-1-benzyl-2-hydroxypropyl}-carbamic acid pyridin-3-ylmethyl ester]",fold resistance Strain A,mutant HIV strain A,53.7
same,EC50,mutant HIV strain A,263 nM
same,fold resistance Strain B,mutant HIV strain B,1.1
same,EC50,mutant HIV strain B,5.62 nM
same,fold resistance Strain E,mutant HIV strain E,4.9
same,EC50,mutant HIV strain E,24 nM
same,fold resistance Strain D,mutant HIV strain D,8.5
same,EC50,mutant HIV strain D,41.7 nM
same,fold resistance Strain C,mutant HIV strain C,1000.0
same,EC50,mutant HIV strain C,4900 nM
same,CC50 at 5 days,[1],51300 nM
same,EC50,HIV-1 strain LAI; [3],4.9 nM
"CC(C)CN(C[C@@H](O)[C@H](Cc1ccccc1)NC(=O)OC1CCOC1)S(=O)(=O)c1ccc2nc(N)sc2c1 (stereo partly drawn) [Compound 12, {(1S,2R)-3-[(2-amino-benzothiazole-6-sulfonyl)-isobutyl-amino]-1-benzyl-2-hydroxypropyl}-carbamic acid tetrahydro-furan-3-yl ester]",fold resistance Strain A,mutant HIV strain A,53.7
same,EC50,mutant HIV strain A,229 nM
same,fold resistance Strain B,mutant HIV strain B,1.8
same,EC50,mutant HIV strain B,7.59 nM
same,fold resistance Strain E,mutant HIV strain E,1.8
same,EC50,mutant HIV strain E,7.76 nM
same,fold resistance Strain D,mutant HIV strain D,6.2
same,EC50,mutant HIV strain D,26.3 nM
same,fold resistance Strain C,mutant HIV strain C,44.7
same,EC50,mutant HIV strain C,191 nM
same,CC50 at 5 days,[1],> 100000 nM
same,EC50,HIV-1 strain LAI; [3],4.27 nM
